Read-outs that look alike come from different tables or passages of the source.

The target of experiment [1] is HDAC1 (Homo sapiens, UniProt Q13547). The following applies: cited from earlier work.
Experiment [2] has as its target T1, human p110α expressed in budding yeast (Homo sapiens, UniProt P42336).
T1 construct: expressed in transfected cells; host or cells: Saccharomyces cerevisiae AD1-9 (LEU2-disrupted), galactose-induced
In words: Screening of PI3K inhibitor using budding yeast (recovery from cell proliferation disorder caused by p110α). The class given is cell-based. Conditions: AD1-9 transformant expressing p110α, compound 5 μM, 24 hours, average of three tests. The procedure:
AD1-9 strain can be obtained from Nader Nourizad (Stanford Genome Technology Center Stanford University, CA, USA).
The transformed AD 1-9 strain was cultured at 30° C. in a minimal complete medium SC-U-L containing no uracil and leucine or SGal-U-L in which 2% glucose was replaced with 2% galactose.
By using the aforementioned system, screening of the compound library, which was obtained from the Screening committee of anticancer drugs supported by grant-in-aid for scientific research on priority area “Cancer” from Ministry of Education, Culture, Sports, Science, and Technology, Japan, was performed. Each compound was added to SGal-U-L liquid medium to constitute a concentration of 0.5 μM or 5 μM and the transformant of AD 1-9 was cultured for 24 hours under shaking. Thereafter, A600 was measured. […] Three independent tests were repeatedly performed to calculate the average value of A600.

Experiment [3] has as its target T2, PI3K (p110α/p85α) (Homo sapiens, UniProt P42336).
T2 construct: purchased Carna Biosciences, Inc. (Kobe); contract measurement
In words: In vitro PI3K inhibitory activity by mobility shift assay (Carna Biosciences). The class given is biochemical. The procedure:
The PI3K (p110α/p85α) inhibitory activity was evaluated at Carna Biosciences, Inc. (Kobe) by mobility shift assay which included isolation and quantification of a substrate and the phosphorylated substrate based on the mobility in a capillary (https://www.carnabio.com/japanese/product/search.cgi?mode=profiling). […] After allowing the reaction to occur for 5 hours at room temperature, the mobility shift assay was performed. The test was performed in duplicate.
Inhibition rate was calculated as follows.
The value of product/substrate+product when an agent was added thereto was calculated similarly, and the inhibition rate was calculated based on a difference from the control value.

The test system of experiment [4] is RKO cells. In words: Cytotoxic effect by MTT assay, RKO. The class given is cell-based, human. Conditions: 24 hours. The method, then: (§1) The human culture cells used were colon cancer cell lines (HCT116, CO115, and RKO). HCT116 and RKO were obtained from American Type Culture Collection (ATCC). CO115 was obtained from John M. Mariadason (Ludwig Institute for Cancer Research, Melbourne, Australia). The cells were cultured at 37° C. in the presence of 5% CO2 by using RPMI1640 medium containing inactivated fetal bovine serum at the concentration of 10%.
(§2) After 24 hours, the number of live cells was determined by using “Cell counting kit-8” (trade name, manufactured by DOJINDO CO., LTD). […] The amount of formazan dye and the number of live cells are in proportional relationship, and by measuring the absorbance of formazan at 450 nm using a microplate reader (trade name: “SpectraMax M2e”, manufactured by Molecular Devices), the number of live cells was counted.

In experiment [5] the test system is HCT116 cells. As to the kind of experiment: FACS cell cycle analysis in HCT116 cells. The class given is cell-based, human. Conditions: HCT116, 24 hours; SAHA 2.5 μM, LY294002 50 μM, FK228 or FK-A5 at low concentration. The method, then:
The cells were collected, fixed with ethanol, stained with iodopropidium/PBS solution, and analyzed by using “Cytomics FC500 Flow Cytometry System” (trade name, manufactured by Beckman Coulter). The cell cycle fractions were calculated by using “Multicycle software” (trade name, manufactured by Phenomix Flow Systems).

Experiment [6] has as its system AKT pathway in PC3 (prostate cancer) cells. As to the kind of experiment: AKT pathway inhibition by Western blotting in PC3 cells. The experiment is classed as cell-based, human. The method, then:
PC3 cells were obtained from Cell Resource Center for Medical Research of Institute of Development, Aging, and Cancer, Tohoku University. The cells were cultured at 37° C. in the presence of 5% CO2 by using RPMI1640 medium containing inactivated fetal bovine serum at the concentration of 10%.
Western blotting was performed as follows. Various kinds of the cells treated with each compound were collected and lysed in a lysis buffer (500 mM Tris-HCl pH 7.5, 100 mM NaCl, 2 mM EDTA, 1 mM sodium orthovanadate, 1% NP-40, and 1% protease inhibitor cocktail, manufactured by SIGMA-ALDRICH). After centrifugation, the supernatants were collected.
The followings were used as primary antibodies.
As a secondary antibody, “Alexa Fluor680IgG” (trade name, manufactured by Invitrogen) was used. By using “Odyssey Infrared Imaging System” (trade name, manufactured by LI-COR), expression of the protein of interest was determined.
A general note: Immunoblotting shows a protein as a band on a membrane.

Experiment [7] concerns HCT116 cells. In words: Cytotoxic effect by MTT assay, HCT116. Conditions: HCT116, 24 hours. The class given is cell-based, human. The method, then:
as §1, §2
Background: Formazan colour is commonly taken as a measure of viable cells.

Experiment [8] addresses T3, HDAC6 (Homo sapiens, UniProt Q9UBN7).
T3 sequence (Q9UBN7 1-1215): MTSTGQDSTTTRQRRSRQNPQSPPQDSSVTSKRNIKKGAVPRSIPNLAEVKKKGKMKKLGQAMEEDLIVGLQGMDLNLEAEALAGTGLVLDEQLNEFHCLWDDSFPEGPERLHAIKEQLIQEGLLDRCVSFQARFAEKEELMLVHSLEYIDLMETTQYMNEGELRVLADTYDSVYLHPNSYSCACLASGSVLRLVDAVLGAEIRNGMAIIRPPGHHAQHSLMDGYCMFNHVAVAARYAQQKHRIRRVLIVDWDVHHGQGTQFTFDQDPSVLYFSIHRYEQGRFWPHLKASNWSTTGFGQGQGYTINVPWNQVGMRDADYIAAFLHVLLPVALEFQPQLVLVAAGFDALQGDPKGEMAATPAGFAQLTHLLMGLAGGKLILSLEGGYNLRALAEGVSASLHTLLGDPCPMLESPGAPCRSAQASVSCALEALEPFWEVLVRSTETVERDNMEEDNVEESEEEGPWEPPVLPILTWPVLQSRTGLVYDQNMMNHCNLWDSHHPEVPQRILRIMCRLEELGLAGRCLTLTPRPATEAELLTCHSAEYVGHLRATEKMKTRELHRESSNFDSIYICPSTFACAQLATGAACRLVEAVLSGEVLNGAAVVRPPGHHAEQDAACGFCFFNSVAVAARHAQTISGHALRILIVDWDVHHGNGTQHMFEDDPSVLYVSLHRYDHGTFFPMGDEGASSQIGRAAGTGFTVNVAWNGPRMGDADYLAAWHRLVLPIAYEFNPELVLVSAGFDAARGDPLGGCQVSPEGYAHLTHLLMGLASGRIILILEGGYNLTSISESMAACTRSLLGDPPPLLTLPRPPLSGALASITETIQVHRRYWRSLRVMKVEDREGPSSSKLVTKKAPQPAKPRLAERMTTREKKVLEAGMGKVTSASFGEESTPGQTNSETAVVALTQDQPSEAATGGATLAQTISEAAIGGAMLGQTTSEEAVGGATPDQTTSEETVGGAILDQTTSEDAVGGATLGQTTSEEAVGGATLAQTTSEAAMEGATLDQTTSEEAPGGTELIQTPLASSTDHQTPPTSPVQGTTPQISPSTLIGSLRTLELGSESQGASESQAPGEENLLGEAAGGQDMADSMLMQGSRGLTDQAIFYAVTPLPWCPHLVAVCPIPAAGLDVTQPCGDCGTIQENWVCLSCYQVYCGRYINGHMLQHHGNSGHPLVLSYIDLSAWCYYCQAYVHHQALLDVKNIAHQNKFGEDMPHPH
The following applies: Table 2; cited from earlier work.

Experiment [9] has as its system CO115 cells. As to the kind of experiment: Cytotoxic effect by MTT assay, CO115. The experiment is classed as cell-based, human. The following applies: CO115, 24 hours. The method, then:
as §1, §2

T2 sequence (P42336 whole entry): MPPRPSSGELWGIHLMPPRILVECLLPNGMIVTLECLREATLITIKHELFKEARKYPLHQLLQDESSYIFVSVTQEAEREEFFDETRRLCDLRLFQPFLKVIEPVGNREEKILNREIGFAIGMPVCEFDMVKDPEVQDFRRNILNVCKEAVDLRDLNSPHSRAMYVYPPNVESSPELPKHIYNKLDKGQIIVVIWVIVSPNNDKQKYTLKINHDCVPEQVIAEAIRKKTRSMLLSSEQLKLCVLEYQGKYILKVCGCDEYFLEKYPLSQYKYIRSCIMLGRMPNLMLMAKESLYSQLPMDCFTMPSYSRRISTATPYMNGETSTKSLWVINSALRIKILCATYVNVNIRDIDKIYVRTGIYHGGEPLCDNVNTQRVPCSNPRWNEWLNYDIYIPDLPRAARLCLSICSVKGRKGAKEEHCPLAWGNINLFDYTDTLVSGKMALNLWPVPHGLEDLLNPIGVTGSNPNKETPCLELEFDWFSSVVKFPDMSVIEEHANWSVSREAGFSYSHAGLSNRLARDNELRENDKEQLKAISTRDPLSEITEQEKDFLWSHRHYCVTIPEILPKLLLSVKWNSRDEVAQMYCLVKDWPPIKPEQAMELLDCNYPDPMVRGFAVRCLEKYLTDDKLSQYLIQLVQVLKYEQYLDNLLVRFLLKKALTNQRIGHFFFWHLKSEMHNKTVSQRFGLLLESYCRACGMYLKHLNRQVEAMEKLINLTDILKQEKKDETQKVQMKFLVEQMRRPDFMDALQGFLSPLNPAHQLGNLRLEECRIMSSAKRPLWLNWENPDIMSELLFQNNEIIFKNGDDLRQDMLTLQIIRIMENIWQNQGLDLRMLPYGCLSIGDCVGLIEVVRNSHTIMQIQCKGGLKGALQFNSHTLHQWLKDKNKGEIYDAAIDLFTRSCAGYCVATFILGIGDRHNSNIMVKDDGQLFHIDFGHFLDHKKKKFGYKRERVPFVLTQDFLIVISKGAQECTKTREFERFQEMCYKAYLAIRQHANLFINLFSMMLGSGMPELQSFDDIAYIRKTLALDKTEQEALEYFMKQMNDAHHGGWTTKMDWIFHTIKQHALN
T2 sequence (P27986 whole entry partner): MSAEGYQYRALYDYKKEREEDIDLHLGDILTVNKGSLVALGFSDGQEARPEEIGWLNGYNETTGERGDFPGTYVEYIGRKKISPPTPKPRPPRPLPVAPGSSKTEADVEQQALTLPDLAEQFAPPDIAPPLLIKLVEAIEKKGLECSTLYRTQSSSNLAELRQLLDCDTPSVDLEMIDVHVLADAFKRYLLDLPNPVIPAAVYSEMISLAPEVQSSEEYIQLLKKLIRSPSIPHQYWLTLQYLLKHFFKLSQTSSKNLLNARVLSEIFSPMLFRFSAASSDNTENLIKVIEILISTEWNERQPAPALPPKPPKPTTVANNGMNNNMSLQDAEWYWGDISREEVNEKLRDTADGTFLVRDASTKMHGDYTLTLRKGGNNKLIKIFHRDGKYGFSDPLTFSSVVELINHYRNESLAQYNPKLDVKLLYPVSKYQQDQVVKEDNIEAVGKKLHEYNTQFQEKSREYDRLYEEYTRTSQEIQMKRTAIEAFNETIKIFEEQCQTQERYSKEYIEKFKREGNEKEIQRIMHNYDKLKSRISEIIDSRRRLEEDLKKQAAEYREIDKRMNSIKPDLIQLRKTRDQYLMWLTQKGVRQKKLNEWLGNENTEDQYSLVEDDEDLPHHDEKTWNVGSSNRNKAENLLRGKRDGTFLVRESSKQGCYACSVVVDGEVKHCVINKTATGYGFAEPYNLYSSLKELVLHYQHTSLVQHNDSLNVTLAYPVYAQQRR
Sequence of HDAC1 (Q13547 whole entry, species assumed): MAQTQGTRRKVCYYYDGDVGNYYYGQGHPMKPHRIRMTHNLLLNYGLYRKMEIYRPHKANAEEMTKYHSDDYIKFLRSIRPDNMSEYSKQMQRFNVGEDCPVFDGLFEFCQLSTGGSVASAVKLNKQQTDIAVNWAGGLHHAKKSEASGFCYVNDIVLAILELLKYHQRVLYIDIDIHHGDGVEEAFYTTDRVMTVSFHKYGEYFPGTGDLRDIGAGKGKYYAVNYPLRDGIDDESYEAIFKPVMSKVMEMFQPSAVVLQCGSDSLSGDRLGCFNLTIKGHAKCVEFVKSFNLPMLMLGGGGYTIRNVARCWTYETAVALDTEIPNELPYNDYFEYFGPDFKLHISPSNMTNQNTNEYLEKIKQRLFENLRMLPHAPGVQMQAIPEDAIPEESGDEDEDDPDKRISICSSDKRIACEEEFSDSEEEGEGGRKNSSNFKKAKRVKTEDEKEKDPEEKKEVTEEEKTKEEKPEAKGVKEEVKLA
T1 sequence (P42336 whole entry): as the sequence (P42336 whole entry) above

A word on the IC50: it is the point on the concentration scale where inhibition reaches its midpoint. With `CC(C)[C@H]1NC(=O)CC2/C=C/CCSSCC(NC1=O)C(=O)N[C@H](Cc1ccccc1)C(=O)NCC(=O)O2` (stereo in doubt) [FK-A5], the IC50 in experiment [1] (Table 2) is 0.0025 µM; in experiment [1] (Table 3), 0.0025 µM; in [3] (50 μM ATP, read-out: IC50 for PI3K), 26.2 µM; in experiment [3] (Table 3, PI3K (p110α/p85α), read-out: PI3K IC50), 27.3 µM; in experiment [8], 1.6 µM. The A600 in experiment [2] is 0.449. Also, the “PI3K activity inhibitory rate” value in experiment [3] (compound 20 μM, 50 μM ATP) is given as “higher inhibition rate than FK228”. The inhibition at 20 µM in [3] (compound 20 μM, 50 μM ATP, read-out: PI3K activity inhibitory rate) turned out to be 66.8%. In addition, the “number of cells at high concentration” value in experiment [4] (μM levels), in experiment [7] (μM levels) and in [9] (μM levels) was “very significantly reduced the number of cells” each time. In [5], the cell cycle arrest entry is “induced cell cycle arrest, predominantly at G2/M phase”. For the same compound, in [6] (10 μM, 5 to 180 minutes), the “expression level of phosphorylated AKT (Ser-473, Thr-308) over time” value is recorded as “lowered the expression level of phosphorylated AKT (Ser-473, Thr-308)”. Further, the “phosphorylated ERK1/2” value in experiment [6] (180 minutes) is “slightly inhibited”. Besides, in experiment [6] (180 minutes), the “phosphorylated MEK1/2” value was “not inhibited”. The “expression levels of phosphorylated AKT, GSK-3β, mTOR, p70S6K and 4E-BP1” value in experiment [6] (180 minutes, varying concentration) is recorded as “inhibited in a concentration dependent manner”.
With `CC(C)[C@H]1NC(=O)CC2/C=C/CCSSCC(NC1=O)C(=O)N[C@H](Cc1cccc3ccccc13)C(=O)NCC(=O)O2` (stereo partly drawn) [FK-A11], the cell death entry is reported as “significant cell death” in [4] (5 nM to 500 nM), “significant cell death” in experiment [7] (5 nM to 500 nM), “strong cell death” in experiment [9] (from 500 nM) and “resistant” in [9] (up to 50 nM). For the same compound, in experiment [6] (180 minutes), the “inhibition of AKT phosphorylation compared with FK-A5 and FK228” value is “occurred at a lower concentration than FK-A5 and FK228”.

The values above are taken from patent US9963482B2, “Phosphatidylinositol-3-kinase inhibitor and pharmaceutical composition” (Tohoku University, priority 2011, dated 2018).
